Assay results taken from patent US20260265189A1, “NOVEL COMPOUND, AND PHARMACEUTICAL COMPOSITION COMPRISING SAME AS ACTIVE INGREDIENT” (SAPIENSBIO INC., priority 2022, published 2026).

Each compound was assayed on α-SMA expression in MRC5 cells (assay: inhibition of α-SMA expression in MRC5 cells, image screening method). Settings: Homo sapiens; MRC5, compound 10 μM, TGF-β1 5 ng/mL, 72 hours, relative to TGF-β1 alone; read-out: Inhibitory activity (α-SMA expression inhibition).
Assay type: cell-based
Protocol: The ability of the compounds according to the present invention to inhibit the expression of α-SMA, which is a biomarker for pulmonary fibrosis, was evaluated by an image screening method. MRC5 cells were treated with the compound (10 μM) or DMSO under the condition of TGF-31 (5 ng/mL). 72 hours later, the cells were fixed with a 4% formaldehyde solution, treated with a 0.1% Triton-x100 solution, and treated with a 1% BSA solution to mask non-specific binding caused by antibodies. Anti-α-SMA-FITC (Sigma Aldrich) and anti-GAPDH (Cell Signaling Technology) were used as primary antibodies, and anti-mouse-TRITC was used as a secondary antibody. Imaging and analysis of the results were performed using Cytation5_Gen5_Version 3.12.08 (Bio Tek). Relative to the α-SMA expression level when TGF-31 was treated alone, the α-SMA expression level when both the compound and TGF-31 were treated was calculated as the ability of α-SMA expression inhibition of the corresponding compound.
`CC(C)CN1CC[C@@H](CNC(=O)N2CCN(c3ccc(F)cc3)c3ccccc32)C1` [Compound 60, (S)-4-(4-fluorophenyl)-N-((1-isobutylpyrrolidin-3-yl)methyl)-3,4-dihydroquinoxaline-1(2H)-carboxamide] showed an inhibition at 10 µM of 50 to 70%.
For `CC(C)N1CC[C@H](CNC(=O)N2CCN(c3ccc(F)cc3)c3ccccc32)C1` [Compound 55, (R)-4-(4-fluorophenyl)-N-((1-isopropylpyrrolidin-3-yl)methyl)-3,4-dihydroquinoxaline-1(2H)-carboxamide], the inhibition at 10 µM was 30 to 50%.
Compound `O=C(NCC1CCOCC1)N1CCN(c2ccc(F)cc2)c2ccccc21` [Compound 52, 4-(4-fluorophenyl)-N-((tetrahydro-2H-pyran-4-yl)methyl)-3,4-dihydroquinoxaline-1(2H)-carboxamide] has an inhibition at 10 µM of 10 to 30%.
In the case of `CN1CCC(CNC(=O)N2CCN(c3ccc(F)cc3)c3cc(F)ccc32)CC1` [Compound 34], the inhibition at 10 µM is reported as 50 to 70%.
For `O=C(NC[C@H]1CCNC1)N1CCN(c2ccc(F)cc2)c2ccccc21` [Compound 53, (S)-4-(4-fluorophenyl)-N-(pyrrolidin-3-ylmethyl)-3,4-dihydroquinoxaline-1(2H)-carboxamide], the inhibition at 10 µM was 10 to 30%.
`CC(C)N1CC(CNC(=O)N2CCN(c3ccc(F)cc3)c3cc(F)ccc32)C1` [Compound 46, 6-fluoro-4-(4-fluorophenyl)-N-((1-isopropylazetidin-3-yl)methyl)-3,4-dihydroquinoxaline-1(2H)-carboxamide] showed an inhibition at 10 µM of 30 to 50%.
Work on `CC(C)(C)CC(=O)N1CCN(C(=O)NCC2CCNCC2)c2ccccc21` [Compound 130, 4-(3,3-dimethylbutanoyl)-N-(piperidin-4-ylmethyl)-3,4-dihydroquinoxaline-1(2H)-carboxamide] yielded an inhibition at 10 µM of 10 to 30%.
`O=C(N[C@@H]1CCOC1)N1CCN(c2cccnc2)c2ccccc21` [Compound 73, (R)-4-(pyridin-3-yl)-N-(tetrahydrofuran-3-yl)-3,4-dihydroquinoxaline-1(2H)-carboxamide] showed an inhibition at 10 µM of 30 to 50%.
`CC(C)CC(=O)N1CCN(C(=O)NCC2CCNCC2)c2ccccc21` [Compound 125, 4-(3-methylbutanoyl)-N-(piperidin-4-ylmethyl)-3,4-dihydroquinoxaline-1(2H)-carboxamide] showed an inhibition at 10 µM of 10 to 30%.
Work on `CN1CCC(CNC(=O)N2CCN(Cc3ccccc3F)c3ccccc32)CC1` [Compound 89, 4-(2-fluorobenzyl)-N-((1-methylpiperidin-4-yl)methyl)-3,4-dihydroquinoxaline-1(2H)-carboxamide] yielded an inhibition at 10 µM of 50 to 70%.
`O=C(NCC1CCOC1)N1CCN(c2ccc(F)cc2)c2cc(F)ccc21` (stereo not drawn) [Compound 48, 6-fluoro-4-(4-fluorophenyl)-N-((tetrahydrofuran-3-yl)methyl)-3,4-dihydroquinoxaline-1(2H)-carboxamide] gave an inhibition at 10 µM of 10 to 30%.
Work on `CN(C)[C@H]1CCN(C(=O)N2CCN(Cc3ccccn3)c3ccccc32)C1` [Compound 97, (S)-(3-(dimethylamino)pyrrolidin-1-yl)(4-(pyridin-2-ylmethyl)-3,4-dihydroquinoxalin-1(2H)-yl)methanone] yielded an inhibition at 10 µM of 10 to 30%.
`O=C(N[C@@H]1CCNC1)N1CCN(Cc2ccccc2)c2ccccc21` [Compound 84, (R)-4-benzyl-N-(pyrrolidin-3-yl)-3,4-dihydroquinoxaline-1(2H)-carboxamide] gave an inhibition at 10 µM of 30 to 50%.
Work on `CC(C)N1CC[C@H](NC(=O)N2CCN(c3ccc(F)cc3)c3cc(F)ccc32)C1` [Compound 10, (S)-6-fluoro-4-(4-fluorophenyl)-N-(1-isopropylpyrrolidin-3-yl)-3,4-dihydroquinoxaline-1(2H)-carboxamide] yielded an inhibition at 10 µM of no less than 70%.
For `CN1CC[C@@H](CNC(=O)N2CCN(c3ccc(F)cc3)c3ccccc32)C1` [Compound 58, (S)-4-(4-fluorophenyl)-N-((1-methylpyrrolidin-3-yl)methyl)-3,4-dihydroquinoxaline-1(2H)-carboxamide], the inhibition at 10 µM was 30 to 50%.
`CN1CCN(C(=O)N2CCN(C3CCCCC3)c3ccccc32)CC1` [Compound 107, (4-cyclohexyl-3,4-dihydroquinoxalin-1(2H)-yl)(4-methylpiperazin-1-yl)methanone] gave an inhibition at 10 µM of 10 to 30%.
`O=C(N[C@H]1CCNC1)N1CCN(c2ccc(F)cc2)c2ccccc21` [Compound 49, (S)-4-(4-fluorophenyl)-N-(pyrrolidin-3-yl)-3,4-dihydroquinoxaline-1(2H)-carboxamide] gave an inhibition at 10 µM of 10 to 30%.
For `O=C(N1CCCC1)N1CCN(C2CCCCC2)c2ccccc21` [Compound 108, (4-cyclohexyl-3,4-dihydroquinoxalin-1(2H)-yl)(pyrrolidin-1-yl)methanone], the inhibition at 10 µM was 30 to 50%.
`CC(C)N1CC[C@H](CNC(=O)N2CCN(c3ccc(F)cc3)c3cc(F)ccc32)C1` [Compound 19, (R)-6-fluoro-4-(4-fluorophenyl)-N-((1-isopropylpyrrolidin-3-yl)methyl)-3,4-dihydroquinoxaline-1(2H)-carboxamide] gave an inhibition at 10 µM of 50 to 70%.
For `CC(C)N1CCC(NC(=O)N2CCN(c3ccc(F)cc3)c3cc(F)ccc32)CC1` [Compound 31, 6-fluoro-4-(4-fluorophenyl)-N-(1-isopropylpiperidin-4-yl)-3,4-dihydroquinoxaline-1(2H)-carboxamide], the inhibition at 10 µM was 50 to 70%.
`O=C(NC[C@H]1CCCN1)N1CCN(c2ccc(F)cc2)c2ccccc21` [Compound 57, (R)-4-(4-fluorophenyl)-N-(pyrrolidin-2-ylmethyl)-3,4-dihydroquinoxaline-1(2H)-carboxamide] gave an inhibition at 10 µM of 30 to 50%.
For `O=C(NCC1CCNCC1)N1CCN(c2ccc(F)cc2)c2cc(F)ccc21` [Compound 33, 6-fluoro-4-(4-fluorophenyl)-N-(piperidin-4-ylmethyl)-3,4-dihydroquinoxaline-1(2H)-carboxamide], the inhibition at 10 µM was 50 to 70%.
For `O=C(NCC1CCOC1)N1CCN(Cc2ccccn2)c2ccccc21` (stereo not drawn) [Compound 100, 4-(pyridin-2-ylmethyl)-N-((tetrahydrofuran-3-yl)methyl)-3,4-dihydroquinoxaline-1(2H)-carboxamide], the inhibition at 10 µM was 30 to 50%.
With `CC(C)CN1CCC(CNC(=O)N2CCN(c3ccc(F)cc3)c3ccccc32)CC1` [Compound 64, 4-(4-fluorophenyl)-N-((1-isobutylpiperidin-4-yl)methyl)-3,4-dihydroquinoxaline-1(2H)-carboxamide] the inhibition at 10 µM was no less than 70%.
Work on `O=C(NC1CCNCC1)N1CCN(c2ccc(F)cc2)c2cc(F)ccc21` [Compound 29, 6-fluoro-4-(4-fluorophenyl)-N-(piperidin-4-yl)-3,4-dihydroquinoxaline-1(2H)-carboxamide] yielded an inhibition at 10 µM of 50 to 70%.
For `CN1CC(CNC(=O)N2CCN(c3ccc(F)cc3)c3cc(F)ccc32)C1` [Compound 45, 6-fluoro-4-(4-fluorophenyl)-N-((1-methylazetidin-3-yl)methyl)-3,4-dihydroquinoxaline-1(2H)-carboxamide], the inhibition at 10 µM was 50 to 70%.
With `O=C(NC[C@H]1CCNC1)N1CCN(c2ccccn2)c2ccccc21` [Compound 71, (S)-4-(pyridin-2-yl)-N-(pyrrolidin-3-ylmethyl)-3,4-dihydroquinoxaline-1(2H)-carboxamide] the inhibition at 10 µM was 30 to 50%.
Work on `CC(C)CN1CCC[C@@H]1CNC(=O)N1CCN(c2ccc(F)cc2)c2cc(F)ccc21` [Compound 24, (R)-6-fluoro-4-(4-fluorophenyl)-N-((1-isobutylpyrrolidin-2-yl)methyl)-3,4-dihydroquinoxaline-1(2H)-carboxamide] yielded an inhibition at 10 µM of no less than 70%.
`O=C(NCC1CC1)N1CCN(c2ccncc2)c2ccccc21` [Compound 74, N-(cyclopropylmethyl)-4-(pyridin-4-yl)-3,4-dihydroquinoxaline-1(2H)-carboxamide] was tested, and the inhibition at 10 µM was 30 to 50%.
Work on `O=C(N[C@@H]1CCNC1)N1CCN(c2ccc(F)cc2)c2cc(F)ccc21` [Compound 1, (R)-6-fluoro-4-(4-fluorophenyl)-N-(pyrrolidin-3-yl)-3,4-dihydroquinoxaline-1(2H)-carboxamide] yielded an inhibition at 10 µM of no less than 70%.
`CN[C@H]1CCN(C(=O)N2CCN(Cc3ccccc3)c3ccccc32)C1` [Compound 86, (S)-(4-benzyl-3,4-dihydroquinoxalin-1(2H)-yl)(3-(methylamino)pyrrolidin-1-yl)methanone] showed an inhibition at 10 µM of 10 to 30%.
`O=C(NCC1CCNCC1)N1CCN(c2ccc(F)cc2)c2ccccc21` [Compound 62, 4-(4-fluorophenyl)-N-(piperidin-4-ylmethyl)-3,4-dihydroquinoxaline-1(2H)-carboxamide] showed an inhibition at 10 µM of 30 to 50%.
For `O=C(NC[C@H]1CCNC1)N1CCN(c2ccc(F)cc2)c2cc(F)ccc21` [Compound 17, (S)-6-fluoro-4-(4-fluorophenyl)-N-(pyrrolidin-3-ylmethyl)-3,4-dihydroquinoxaline-1(2H)-carboxamide], the inhibition at 10 µM was 30 to 50%.
In the case of `CN1CCC[C@@H]1CNC(=O)N1CCN(c2ccc(F)cc2)c2cc(F)ccc21` [Compound 22, (R)-6-fluoro-4-(4-fluorophenyl)-N-((1-methylpyrrolidin-2-yl)methyl)-3,4-dihydroquinoxaline-1(2H)-carboxamide], the inhibition at 10 µM is reported as no less than 70%.
`O=C(NCC1CCOCC1)N1CCN(Cc2ccccn2)c2ccccc21` [Compound 101, 4-(pyridin-2-ylmethyl)-N-((tetrahydro-2H-pyran-4-yl)methyl)-3,4-dihydroquinoxaline-1(2H)-carboxamide] showed an inhibition at 10 µM of 30 to 50%.
For `CC(C)CN1CC(CNC(=O)N2CCN(c3ccc(F)cc3)c3ccccc32)C1` [Compound 61, 4-(4-fluorophenyl)-N-((1-isobutylazetidin-3-yl)methyl)-3,4-dihydroquinoxaline-1(2H)-carboxamide], the inhibition at 10 µM was 50 to 70%.
